Results: US20230279025A1, “KRAS G12D INHIBITORS” (Mirati Therapeutics, Inc., priority 2020, published 2023)

Assays:
KRas G12D [1] = biological target: T1, KRas G12D (Homo sapiens (Human), UniProt P01116, G12D); test: KRas G12D Surface Plasmon Resonance (SPR) Binding Assay; settings: Biacore T200, immobilized biotinylated KRAS protein, 1:1 binding model
Target sequence in this assay (P01116-2 other isoform, or with tags, fused parts or gaps G12D): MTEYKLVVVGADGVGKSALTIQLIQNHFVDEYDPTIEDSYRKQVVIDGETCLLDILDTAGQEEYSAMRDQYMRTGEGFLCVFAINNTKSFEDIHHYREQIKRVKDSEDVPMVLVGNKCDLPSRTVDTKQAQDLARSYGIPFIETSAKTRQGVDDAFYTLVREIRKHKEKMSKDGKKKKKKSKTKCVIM

KRas G12D [2] = biological target: T1, KRas G12D; test: KRas G12D Binding Assay (TR-FRET displacement of Cy5 labelled tracer); settings: GDP-loaded KRAS G12D (amino acids 1:169), 60 minute incubation at 22° C.
Experimental: After a 60 minute incubation at 22° C., the reaction was measured using a PerkinElmer EnVision multimode plate reader via TR-FRET dual wavelength detection, and the percent of control (POC) calculated using a ratiometric emission factor. […] The POC values were fit to a 4-parameter logistic curve and the IC50 value was determined as the concentration where the curve crosses 50 POC.
ND stands for “not determined.”
Target sequence in this assay (P01116 other isoform, or with tags, fused parts or gaps G12D): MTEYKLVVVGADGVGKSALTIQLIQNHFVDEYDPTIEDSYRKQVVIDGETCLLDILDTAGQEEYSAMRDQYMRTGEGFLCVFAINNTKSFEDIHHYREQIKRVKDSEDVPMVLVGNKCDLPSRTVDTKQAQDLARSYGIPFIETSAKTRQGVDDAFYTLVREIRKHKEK

C[C@H](CN(C)C)Oc1nc(N2C[C@H]3CC[C@@H](C2)N3)c2cnc(-c3cc(O)cc4ccccc34)c(F)c2n1 [Example 17, 4-(4-((1R,5S)-3,8-diazabicyclo[3.2.1]octan-3-yl)-2-(((R)-1-(dimethylamino)propan-2-yl)oxy)-8-fluoropyrido[4,3-d]pyrimidin-7-yl)naphthalen-2-ol]
Kd (KRas G12D [1]): 2210 nM | IC50 (KRas G12D [2]): 666 nM

Fc1c(-c2cccc3cccc(Cl)c23)ncc2c(N3C[C@H]4CC[C@@H](C3)N4)nc(OC3CCc4[nH]ncc4C3)nc12 (stereo partly drawn) [Example 142, 4-((1R,5S)-3,8-diazabicyclo[3.2.1]octan-3-yl)-7-(8-chloronaphthalen-1-yl)-8-fluoro-2-((4,5,6,7-tetrahydro-1H-indazol-5-yl)oxy)pyrido[4,3-d]pyrimidine]
Kd (KRas G12D [1]): 13800 nM | IC50 (KRas G12D [2]): 8850 nM

Oc1cc(-c2ncc3c(N4C[C@H]5CC[C@@H](C4)N5)nc(OCCc4ccc(F)cn4)nc3c2F)c2ccccc2c1 [Example 102, 4-(4-((1R,5S)-3,8-diazabicyclo[3.2.1]octan-3-yl)-8-fluoro-2-(2-(5-fluoropyridin-2-yl)ethoxy)pyrido[4,3-d]pyrimidin-7-yl)naphthalen-2-ol]
Kd (KRas G12D [1]): 259 nM | IC50 (KRas G12D [2]): 95.8 nM

Cn1ccnc1COc1nc(N2C[C@H]3CC[C@@H](C2)N3)c2cnc(-c3cc(O)cc4ccccc34)c(F)c2n1 [Example 104, 4-(4-((1R,5S)-3,8-diazabicyclo[3.2.1]octan-3-yl)-8-fluoro-2-((1-methyl-1H-imidazol-2-yl)methoxy)pyrido[4,3-d]pyrimidin-7-yl)naphthalen-2-ol]
Kd (KRas G12D [1]): 362 nM | IC50 (KRas G12D [2]): 1680 nM

C#Cc1cccc2cccc(-c3ncc4c(N5C[C@H]6CC[C@@H](C5)N6)nc(OCC56CCCN5CCC6)nc4c3F)c12 [Example 179, 4-((1R,5S)-3,8-diazabicyclo[3.2.1]octan-3-yl)-7-(8-ethynylnaphthalen-1-yl)-8-fluoro-2-((hexahydro-1H-pyrrolizin-7a-yl)methoxy)pyrido[4,3-d]pyrimidine]
Kd (KRas G12D [1]): 0.1 nM | IC50 (KRas G12D [2]): 1.1 nM

OC[C@@H]1CCN1c1nc(N2C[C@H]3CC[C@@H](C2)N3)c2cnc(-c3cc(O)cc4ccccc34)c(F)c2n1 [Example 121, 4-(4-((1R,5S)-3,8-diazabicyclo[3.2.1]octan-3-yl)-8-fluoro-2-((S)-2-(hydroxymethyl)azetidin-1-yl)pyrido[4,3-d]pyrimidin-7-yl)naphthalen-2-ol 2,2,2-trifluoroacetate]
Kd (KRas G12D [1]): 197 nM | IC50 (KRas G12D [2]): 204 nM

Oc1cc(-c2ncc3c(N4C[C@H]5CC[C@@H](C4)N5)nc(OC[C@@H]4CC5CCN4C5)nc3c2F)c2ccccc2c1 [Example 40, 4-(2-(((2S)-1-azabicyclo[2.2.1]heptan-2-yl)methoxy)-4-((1R,5S)-3,8-diazabicyclo[3.2.1]octan-3-yl)-8-fluoropyrido[4,3-d]pyrimidin-7-yl)naphthalen-2-ol]
Kd (KRas G12D [1]): 1.7 nM | IC50 (KRas G12D [2]): 4 nM

Oc1cc(-c2ncc3c(N4C[C@H]5CC[C@@H](C4)N5)nc(OCCc4cccnc4)nc3c2F)c2ccccc2c1 [Example 106, 4-(4-((1R,5S)-3,8-diazabicyclo[3.2.1]octan-3-yl)-8-fluoro-2-(2-(pyridin-3-yl)ethoxy)pyrido[4,3-d]pyrimidin-7-yl)naphthalen-2-ol]
Kd (KRas G12D [1]): 53.5 nM | IC50 (KRas G12D [2]): 156 nM

Cc1ccc2[nH]ncc2c1-c1ncc2c(N3C[C@H]4CC[C@@H](C3)N4)nc(OCCc3nccn3C)nc2c1F [Example 88, 4-((1R,5S)-3,8-diazabicyclo[3.2.1]octan-3-yl)-8-fluoro-2-(2-(1-methyl-1H-imidazol-2-yl)ethoxy)-7-(5-methyl-1H-indazol-4-yl)pyrido[4,3-d]pyrimidine]
Kd (KRas G12D [1]): 15600 nM | IC50 (KRas G12D [2]): 7020 nM

OCCCOc1nc(N2C[C@H]3CC[C@@H](C2)N3)c2cnc(-c3cc(O)cc4ccccc34)c(F)c2n1 [Example 75, 4-(4-((1R,5S)-3,8-diazabicyclo[3.2.1]octan-3-yl)-8-fluoro-2-(3-hydroxypropoxy)pyrido[4,3-d]pyrimidin-7-yl)naphthalen-2-ol]
Kd (KRas G12D [1]): 304 nM | IC50 (KRas G12D [2]): 240 nM

Fc1c(-c2cccc3cccc(Cl)c23)ncc2c(N3CC4CC(F)C(C3)N4)nc(OC[C@@]34CCCN3C[C@H](F)C4)nc12 (stereo partly drawn) [Example 396, 7-(8-chloronaphthalen-1-yl)-8-fluoro-4-(6-fluoro-3,8-diazabicyclo[3.2.1]octan-3-yl)-2-((2-fluorotetrahydro-1H-pyrrolizin-7a(5H)-yl)methoxy)pyrido[4,3-d]pyrimidine]
Kd (KRas G12D [1]): 34.8 nM | IC50 (KRas G12D [2]): 207 nM

Cn1ccnc1CCOc1nc(N2C[C@H]3CC[C@@H](C2)N3)c2cnc(-c3cccc4ccc(F)cc34)c(F)c2n1 [Example 112, 4-((1R,5S)-3,8-diazabicyclo[3.2.1]octan-3-yl)-8-fluoro-7-(7-fluoronaphthalen-1-yl)-2-(2-(1-methyl-1H-imidazol-2-yl)ethoxy)pyrido[4,3-d]pyrimidine]
Kd (KRas G12D [1]): 983 nM | IC50 (KRas G12D [2]): 718 nM

CN1CCC[C@H]1COc1nc(N2C[C@H]3CC[C@@H](C2)N3)c2cnc(-c3cc(O)c(Br)c4ccccc34)c(F)c2n1 [Example 14, 4-(4-((1R,5S)-3,8-diazabicyclo[3.2.1]octan-3-yl)-8-fluoro-2-(((S)-1-methylpyrrolidin-2-yl)methoxy)pyrido[4,3-d]pyrimidin-7-yl)-1-bromonaphthalen-2-ol]
Kd (KRas G12D [1]): 5.1 nM | IC50 (KRas G12D [2]): 73.9 nM

Cn1cncc1CCOc1nc(N2C[C@H]3CC[C@@H](C2)N3)c2cnc(-c3cc(O)cc4ccccc34)c(F)c2n1 [Example 110, 4-(4-((1R,5S)-3,8-diazabicyclo[3.2.1]octan-3-yl)-8-fluoro-2-(2-(1-methyl-1H-imidazol-5-yl)ethoxy)pyrido[4,3-d]pyrimidin-7-yl)naphthalen-2-ol]
Kd (KRas G12D [1]): 42.3 nM | IC50 (KRas G12D [2]): 57.5 nM

CO[C@@H]1C[C@@H](COc2nc(N3C[C@H]4CC[C@@H](C3)N4)c3cnc(-c4cc(O)cc5ccccc45)c(F)c3n2)N(C)C1 [Example 42, 4-(4-((1R,5S)-3,8-diazabicyclo[3.2.1]octan-3-yl)-8-fluoro-2-(((2S,4R)-4-methoxy-1-methylpyrrolidin-2-yl)methoxy)pyrido[4,3-d]pyrimidin-7-yl)naphthalen-2-ol]
Kd (KRas G12D [1]): 5.6 nM | IC50 (KRas G12D [2]): 3.1 nM

Oc1cc(-c2ncc3c(N4C[C@H]5CC[C@@H](C4)N5)nc(OCC4CCCC4)nc3c2F)c2ccccc2c1 [Example 73, 4-(4-((1R,5S)-3,8-diazabicyclo[3.2.1]octan-3-yl)-2-(cyclopentylmethoxy)-8-fluoropyrido[4,3-d]pyrimidin-7-yl)naphthalen-2-ol]
Kd (KRas G12D [1]): 667000 nM | IC50 (KRas G12D [2]): 573 nM

Cc1cccc2cccc(-c3ncc4c(N5C[C@H]6CC[C@@H](C5)N6)nc(OCCc5nccn5C)nc4c3F)c12 [Example 100, 4-((1R,5S)-3,8-diazabicyclo[3.2.1]octan-3-yl)-8-fluoro-2-(2-(1-methyl-1H-imidazol-2-yl)ethoxy)-7-(8-methylnaphthalen-1-yl)pyrido[4,3-d]pyrimidine]
Kd (KRas G12D [1]): 1090 nM | IC50 (KRas G12D [2]): 1950 nM

Oc1cc(-c2ncc3c(N4C[C@H]5CC[C@@H](C4)N5)nc(N4CC5(CCOCC5)C4)nc3c2F)c2ccccc2c1 [Example 74, 4-(4-((1R,5S)-3,8-diazabicyclo[3.2.1]octan-3-yl)-8-fluoro-2-(7-oxa-2-azaspiro[3.5]nonan-2-yl)pyrido[4,3-d]pyrimidin-7-yl)naphthalen-2-ol]
Kd (KRas G12D [1]): 141 nM | IC50 (KRas G12D [2]): 188 nM
